Source: patent publication US20060035901A1, “Methotrexate derivatives useful for treating cancer and arthritis” (Serenex, Inc., priority 2004, published 2006)

The compounds below were run against T1, propionyl-CoA carboxylase subunit alpha (PCCA) (Sus scrofa, UniProt P0DTA4) (assay: Elution of PCCA from ATP-Sepharose column loaded with porcine liver proteome, IC50 estimate). Conditions: estimated from percent of protein eluted from ATP-Sepharose column, read-out: Approximate IC50 for PCCA.
T1 construct: a porcine liver proteome was run over an ATP-Sepharose™ column; from tissue; host or cells: porcine liver
T1 sequence (P0DTA4 53-730): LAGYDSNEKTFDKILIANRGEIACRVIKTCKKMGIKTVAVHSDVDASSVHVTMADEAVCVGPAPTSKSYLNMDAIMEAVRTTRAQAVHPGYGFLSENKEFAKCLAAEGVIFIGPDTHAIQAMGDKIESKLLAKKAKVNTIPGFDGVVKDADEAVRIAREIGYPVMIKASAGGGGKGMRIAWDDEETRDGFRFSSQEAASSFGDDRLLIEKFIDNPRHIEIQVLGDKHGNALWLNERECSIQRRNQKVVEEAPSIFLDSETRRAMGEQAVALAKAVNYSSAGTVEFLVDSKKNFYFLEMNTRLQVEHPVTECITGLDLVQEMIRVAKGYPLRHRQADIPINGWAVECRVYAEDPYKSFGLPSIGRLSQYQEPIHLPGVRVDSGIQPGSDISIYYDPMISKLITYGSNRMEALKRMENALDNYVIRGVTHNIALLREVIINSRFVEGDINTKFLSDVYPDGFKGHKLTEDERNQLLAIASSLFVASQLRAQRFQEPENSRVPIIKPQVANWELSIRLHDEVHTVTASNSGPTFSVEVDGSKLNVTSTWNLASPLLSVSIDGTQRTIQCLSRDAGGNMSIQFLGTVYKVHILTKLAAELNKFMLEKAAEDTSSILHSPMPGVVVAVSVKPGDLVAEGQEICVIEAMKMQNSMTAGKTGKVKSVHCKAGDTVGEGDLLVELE
T1 sequence (P79384 29-539 partner): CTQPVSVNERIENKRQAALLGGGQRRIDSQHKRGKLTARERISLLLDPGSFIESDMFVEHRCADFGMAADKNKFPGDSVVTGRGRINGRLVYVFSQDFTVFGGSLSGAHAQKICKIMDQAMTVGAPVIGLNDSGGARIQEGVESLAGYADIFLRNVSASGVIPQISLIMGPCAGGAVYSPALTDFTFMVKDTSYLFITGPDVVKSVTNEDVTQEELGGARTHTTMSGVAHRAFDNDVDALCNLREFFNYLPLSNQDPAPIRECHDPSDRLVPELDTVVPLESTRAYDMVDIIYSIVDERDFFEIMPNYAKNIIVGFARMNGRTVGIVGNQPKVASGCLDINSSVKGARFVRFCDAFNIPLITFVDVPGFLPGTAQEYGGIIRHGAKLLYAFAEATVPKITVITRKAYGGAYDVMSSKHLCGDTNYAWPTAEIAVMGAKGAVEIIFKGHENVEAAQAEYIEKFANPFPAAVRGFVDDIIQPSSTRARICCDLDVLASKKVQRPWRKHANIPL
Format: binding
Description: Similar experiments were carried out to compare the IC50 values for PYC, PCCA, and PCCB. In these trials, a porcine liver proteome was run over an ATP-Sepharose™ column to bind all purine-binding proteins. The ATP-Sepharose™ column was washed several times, and then eluted with the compound of Formula III at concentrations of 1 μM, 5 μM, 10 μM, 50 μM, 100 μM, and 500 μM to identify proteins that bound to this compound.
Gels were stained with a fluorescent stain such as sypro ruby (a highly sensitive fluorescent protein stain that can readily detect less than 1 fmol of total protein, i.e., less than 0.04 ng for a 40 kDa protein). The gels were imaged using a standard flat bed gel imager and the amount of protein estimated by densiometry. The percent of protein eluted from the column at each concentration was determined and IC50 values were calculated from these estimates. Where necessary, the eluted proteins were cut out of the gel, and identified using mass spectral techniques.
The values obtained were then compared to those for DHFR.

Q: Which IC50 does the source give for `C#CCN(Cc1cnc2nc(N)nc(N)c2n1)c1ccc(C(=O)NC(CCC(=O)O)C(=O)O)cc1C` (stereo not shown) [Formula III, 2-{4-[(2,4-diamino-pteridin-6-ylmethyl)-prop-2-ynyl-amino]-3-methyl-benzoylamino}-pentanedioic acid] here?
A: 2000 nM

Q: For `Cc1cc(C(=O)NC(CCC(=O)O)C(=O)O)ccc1N(Cc1ccoc1)Cc1cnc2nc(N)nc(N)c2n1` (stereo not shown) [Formula VII], which IC50 is on record?
A: 2000 nM

Q: Which IC50 does the source give for `C#CCN(Cc1cnc2nc(N)nc(N)c2n1)c1ccc(C(=O)NC(CCC(=O)O)C(=O)O)cc1OC(F)(F)F` (stereo not shown) [Formula IX] here?
A: 10000 nM

Q: `C#CCN(Cc1cnc2nc(N)nc(N)c2n1)c1ccc(C(=O)NC(CCC(=O)O)C(=O)O)cc1OC` (stereo not shown) [Formula VIII] was tested. Which IC50 did it give?
A: 2000 nM
